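Interpolation was linear, between the two tested concentrations surrounding the appropriate level; five concentrations were tested over 48 hours in 96-well plates. GI50 marks 50% less growth.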 Active and inactive are the calls of the source. Cut-off read from the data, not from the text of the source: active = GI50 up to about 1.1 µM and inactive = higher.
How the values were obtained:
Test in all cases: growth of human tumour cells (NCI), 48 h
786-0 = test system: 786-0
A498 = test system: A498
A549 = test system: A549
ACHN = test system: ACHN
BT-549 = test system: BT-549
CAKI-1 = test system: CAKI-1
CCRF-CEM = test system: CCRF-CEM
COLO 205 = test system: COLO 205
DU-145 = test system: DU-145
EKVX = test system: EKVX
HCT-116 = test system: HCT-116
HCT-15 = test system: HCT-15
HOP-62 = test system: HOP-62
HOP-92 = test system: HOP-92
HT-29 = test system: HT-29
Hs-578T = test system: Hs-578T
IGROV-1 = test system: IGROV-1
K562 = test system: K562
KM12 = test system: KM12
LOX IMVI = test system: LOX IMVI
M14 = test system: M14
MCF7 = test system: MCF7
MDA-MB-231 = test system: MDA-MB-231
MDA-MB-435 = test system: MDA-MB-435
MOLT-4 = test system: MOLT-4
Malme-3M = test system: Malme-3M
NCI-H226 = test system: NCI-H226
NCI-H23 = test system: NCI-H23
NCI-H460 = test system: NCI-H460
NCI-H522 = test system: NCI-H522
NCI/ADR-RES = test system: NCI/ADR-RES
OVCAR-3 = test system: OVCAR-3
OVCAR-4 = test system: OVCAR-4
OVCAR-5 = test system: OVCAR-5
OVCAR-8 = test system: OVCAR-8
PC-3 = test system: PC-3
RPMI-8226 = test system: RPMI-8226
RXF 393 = test system: RXF 393
SF-268 = test system: SF-268
SF-295 = test system: SF-295
SF-539 = test system: SF-539
SK-MEL-28 = test system: SK-MEL-28
SK-MEL-2 = test system: SK-MEL-2
SK-MEL-5 = test system: SK-MEL-5
SK-OV-3 = test system: SK-OV-3
SN12C = test system: SN12C
SNB-19 = test system: SNB-19
SNB-75 = test system: SNB-75
SR = test system: SR
SW-620 = test system: SW-620
T47D = test system: T47D
TK-10 = test system: TK-10
U-251 = test system: U-251
UACC-257 = test system: UACC-257
UACC-62 = test system: UACC-62
UO-31 = test system: UO-31
HCC 2998 = test system: HCC 2998
HL-60 = test system: HL-60
MDA-N = test system: MDA-N

With `N#Cc1c(N)n(C2OC(CO)C(O)C2O)c2ncnc(N)c12` (stereo unspecified) the GI50 (786-0) was 67.1 nM (active), the GI50 (A498) was 175 nM (active) and the GI50 (A549) was 119 nM (active). For the same compound, the GI50 (ACHN) was 31.2 nM (active), the GI50 (BT-549) was 152 nM (active) and the GI50 (CAKI-1) was 46.3 nM (active). The GI50 (CCRF-CEM) was 25 nM (active), the GI50 (COLO 205) was 32.9 nM (active) and the GI50 (DU-145) was 112 nM (active). The GI50 (EKVX) was 135 nM (active), the GI50 (HCT-116) was 19.5 nM (active) and the GI50 (HCT-15) was 27.7 nM. The GI50 (HOP-62) was 33.5 nM (active), the GI50 (HOP-92) was 136 nM (active) and the GI50 (HT-29) was 28.8 nM (active). For the same compound, the GI50 (Hs-578T) was 144 nM (active), the GI50 (IGROV-1) was 220 nM (active) and the GI50 (K562) was 48 nM (active). For the same compound, the GI50 (KM12) was 41.7 nM (active), the GI50 (LOX IMVI) was 16.5 nM (active) and the GI50 (M14) was 61.7 nM (active). The GI50 (MCF7) was 16.8 nM (active), the GI50 (MDA-MB-231) was 36.4 nM (active) and the GI50 (MDA-MB-435) was 21.2 nM (active). The GI50 (MOLT-4) was 24.8 nM (active), the GI50 (Malme-3M) was 36.7 nM (active) and the GI50 (NCI-H226) was 68.4 nM (active). For the same compound, the GI50 (NCI-H23) was 29.2 nM (active), the GI50 (NCI-H460) was 288 nM (active) and the GI50 (NCI-H522) was 135 nM (active). The GI50 (NCI/ADR-RES) was 24.3 nM (active), the GI50 (OVCAR-3) was 29 nM (active) and the GI50 (OVCAR-4) was 49 nM (active). The GI50 (OVCAR-5) was 54.1 nM (active), the GI50 (OVCAR-8) was 14 nM (active) and the GI50 (PC-3) was 24.5 nM (active). The GI50 (RPMI-8226) was 184 nM (active), the GI50 (RXF 393) was 153 nM (active) and the GI50 (SF-268) was 59.7 nM (active). For the same compound, the GI50 (SF-295) was 71.1 nM (active), the GI50 (SF-539) was 118 nM (active) and the GI50 (SK-MEL-28) was 119 nM (active). For the same compound, the GI50 (SK-MEL-2) was 52.1 nM (active), the GI50 (SK-MEL-5) was 65.3 nM (active) and the GI50 (SK-OV-3) was 64.9 nM (active). For the same compound, the GI50 (SN12C) was 18.6 nM (active), the GI50 (SNB-19) was 129 nM (active) and the GI50 (SNB-75) was 79.8 nM (active). For the same compound, the GI50 (SR) was 14.7 nM (active), the GI50 (SW-620) was 22.8 nM (active) and the GI50 (T47D) was 40.3 nM (active). The GI50 (TK-10) was 21.1 nM (active), the GI50 (U-251) was 114 nM (active) and the GI50 (UACC-257) was 91 nM (active). The GI50 (UACC-62) was 16.8 nM (active) and the GI50 (UO-31) was 84.7 nM (active).
For `O=C(CNc1ccccc1C(=O)O)Nn1cnc2ccc(S(=O)(=O)Nc3ccccc3C(=O)O)cc2c1=O`, the GI50 (786-0) was > 100000 nM (inactive), the GI50 (A549) was > 100000 nM (inactive) and the GI50 (ACHN) was > 100000 nM (inactive). The GI50 (BT-549) was > 100000 nM (inactive), the GI50 (CAKI-1) was > 100000 nM (inactive) and the GI50 (CCRF-CEM) was > 100000 nM (inactive). The GI50 (COLO 205) was > 100000 nM (inactive), the GI50 (DU-145) was > 100000 nM (inactive) and the GI50 (EKVX) was > 100000 nM (inactive). For the same compound, the GI50 (HCC 2998) was > 100000 nM (inactive), the GI50 (HCT-116) was > 100000 nM (inactive) and the GI50 (HCT-15) was over 100000 nM. For the same compound, the GI50 (HL-60) was > 100000 nM (inactive), the GI50 (HOP-62) was > 100000 nM (inactive) and the GI50 (HOP-92) was > 100000 nM (inactive). The GI50 (HT-29) was > 100000 nM (inactive), the GI50 (Hs-578T) was > 100000 nM (inactive) and the GI50 (IGROV-1) was > 100000 nM (inactive). The GI50 (K562) was > 100000 nM (inactive), the GI50 (KM12) was > 100000 nM (inactive) and the GI50 (LOX IMVI) was > 100000 nM (inactive). The GI50 (M14) was > 100000 nM (inactive), the GI50 (MCF7) was > 100000 nM (inactive) and the GI50 (MDA-MB-231) was > 100000 nM (inactive). For the same compound, the GI50 (MDA-MB-435) was > 100000 nM (inactive), the GI50 (MDA-N) was > 100000 nM (inactive) and the GI50 (MOLT-4) was > 100000 nM (inactive). For the same compound, the GI50 (Malme-3M) was > 100000 nM (inactive), the GI50 (NCI-H226) was > 100000 nM (inactive) and the GI50 (NCI-H23) was > 100000 nM (inactive). For the same compound, the GI50 (NCI-H460) was > 100000 nM (inactive), the GI50 (NCI-H522) was > 100000 nM (inactive) and the GI50 (NCI/ADR-RES) was > 100000 nM (inactive). For the same compound, the GI50 (OVCAR-3) was > 100000 nM (inactive), the GI50 (OVCAR-4) was > 100000 nM (inactive) and the GI50 (OVCAR-5) was > 100000 nM (inactive). The GI50 (OVCAR-8) was > 100000 nM (inactive), the GI50 (PC-3) was > 100000 nM (inactive) and the GI50 (RPMI-8226) was > 100000 nM (inactive). The GI50 (SF-268) was > 100000 nM (inactive), the GI50 (SF-295) was > 100000 nM (inactive) and the GI50 (SF-539) was > 100000 nM (inactive). The GI50 (SK-MEL-28) was > 100000 nM (inactive), the GI50 (SK-MEL-2) was > 100000 nM (inactive) and the GI50 (SK-OV-3) was > 100000 nM (inactive). For the same compound, the GI50 (SN12C) was > 100000 nM (inactive), the GI50 (SNB-19) was > 100000 nM (inactive) and the GI50 (SNB-75) was > 100000 nM (inactive). For the same compound, the GI50 (SR) was > 100000 nM (inactive), the GI50 (SW-620) was > 100000 nM (inactive) and the GI50 (TK-10) was > 100000 nM (inactive). For the same compound, the GI50 (U-251) was > 100000 nM (inactive), the GI50 (UACC-257) was > 100000 nM (inactive) and the GI50 (UACC-62) was > 100000 nM (inactive). The GI50 (UO-31) was > 100000 nM (inactive).
